Results on three compounds are retold here after PubChem BioAssay (NCI).

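96-well plates; 48 h exposure; 5 concentrations. Endpoints by linear interpolation between flanking doses. Not reached: highest tested concentration assigned. TGI marks complete inhibition of growth.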

Among the test systems are RXF 393 renal; OVCAR-8 ovarian; DLD-1 colon; RXF-631 renal; M14 melanoma; LXFL 529 NSCLC; HCT-116 colon; SNB-78 CNS; XF 498 CNS; DMS 114 small cell lung; DMS 273 small cell lung; NCI-H226 lung; M19-MEL melanoma; HOP-18 NSCLC; KM20L2 colon.
Experiment in all cases: inhibition of tumour cell growth, NCI panel, 48 h

As to `CCOC(OCC)(OCC)C(Br)CC` (stereo not given), the TGI with RXF 393 renal, in the experiment on OVCAR-8 ovarian, in the experiment with DLD-1 colon, in the experiment with RXF-631 renal, with M14 melanoma and in the experiment on LXFL 529 NSCLC was more than 100 µM in each case. The TGI in the experiment with HCT-116 colon was 19 µM; with SNB-78 CNS it was more than 100 µM; with XF 498 CNS, more than 100 µM; with DMS 114 small cell lung, 25.3 µM; in the experiment with DMS 273 small cell lung, 34.5 µM; in the experiment on NCI-H226 lung, more than 100 µM. In addition, the TGI with M19-MEL melanoma, in the experiment on HOP-18 NSCLC and in the experiment on KM20L2 colon was more than 100 µM throughout.

`CN1S(=O)(=O)N(C)P12(N=P(CP(=NP13(N(C)S(=O)(=O)N1C)N(C)S(=O)(=O)N3C)(c1ccccc1)c1ccccc1)(c1ccccc1)c1ccccc1)N(C)S(=O)(=O)N2C`: the TGI with RXF 393 renal, in the experiment with OVCAR-8 ovarian, in the experiment on DLD-1 colon, with RXF-631 renal, with M14 melanoma and with LXFL 529 NSCLC was more than 100 µM in each case. The TGI in the experiment with HCT-116 colon, in the experiment with SNB-78 CNS, with XF 498 CNS, in the experiment with DMS 114 small cell lung, in the experiment with DMS 273 small cell lung and in the experiment on NCI-H226 lung was more than 100 µM throughout. The TGI in the experiment on M19-MEL melanoma, in the experiment with HOP-18 NSCLC and in the experiment on KM20L2 colon was more than 100 µM throughout.

Regarding `COC(=O)N/N=c1\cc(C(=O)Nc2ccc(C)c(C)c2)oc2cc(O)ccc12`, the TGI with RXF 393 renal, in the experiment with OVCAR-8 ovarian, in the experiment on DLD-1 colon, with RXF-631 renal, in the experiment with M14 melanoma and in the experiment with LXFL 529 NSCLC was more than 100 µM throughout. In addition, the TGI in the experiment on HCT-116 colon, in the experiment on SNB-78 CNS, with XF 498 CNS, with DMS 114 small cell lung, in the experiment on DMS 273 small cell lung and in the experiment with NCI-H226 lung was more than 100 µM throughout. For the same compound, the TGI in the experiment on M19-MEL melanoma, with HOP-18 NSCLC and with KM20L2 colon was more than 100 µM in each case.
